Columns and labels:
[1] = tested on: T1, RXRα; test: Differential scanning fluorimetry (DSF) screen on RXRα; assay type: binding; settings: 500 μM fragment, mean of duplicates
T1 construct: MBP (N, cleaved yes); poly-N-tag, His8-tag, TEV site (N, cleaved yes); made in house; host or cells: E. coli T7-express with pGro7 (GroEL/ES)
Source text: For the primary screen of this fragment library, we employed differential scanning fluorimetry (DSF, also known as thermal shift). DSF is generally applicable to a large panel of protein targets and provides a robust, low‐cost screening technology for fragment‐based approaches. ^[20] All five proteins of our interest are soluble and were recombinantly expressed in Escherichia coli. We performed an initial fragment screen on all five targets by DSF. The use of a uniform screening method for all targets ensured consistent data and provided the opportunity to identify false positive hits which interfered with the screening technology. The conditions of the DSF assay were optimized for the desired screening and validated with reference compounds (Table S1 in the Supporting Information). Compounds causing a positive thermal shift ΔT m≥1.0 °C were considered as active.
DSF measurement of the PDFL (single concentration of 500 μM, duplicates, 96‐well format) on the five proteins retrieved 19 fragment hits on sEH, 28 on LTA4H, 12 on 5‐LOX, 16 on RXRα, and 14 on FXR, respectively. Melting point distributions of the screening library for all five targets are depicted in Figure 2. Amongst the hits, three compounds (Table S2) gave a positive signal on all five proteins likely qualifying them as pan assay interference compounds (PAINS). ^[21] Fragments binding to multiple targets (Scheme 1) were identified for seven out of ten target combinations (Figure 2, Table 1). Among them, fragments 4, 6, 7, and 9 match previously identified privileged scaffolds for fatty acid mimetics. ^[14] […] Active ligands containing N‐phenylbenzamide 6 and the N‐phenylbenzylamine 7 have been described for four of the protein targets. Furthermore, indole, which has been characterized as a privileged heterocycle for fatty acid mimetics, ^[14] is present in fragments 5 and 10. Dual 5‐LOX/RXR ligand 1 was present in 5‐LOX inhibitors, while dual FXR/LTA4H modulator 3 is found among known FXR ligands. Fragments 2 (sEH/5‐LOX) and 8 (LTA4H/RXR) are novel scaffolds not appearing in known ligands of any of the five targets.
Figure S3: SDS page of the purified proteins (proteins RXRα and FXR after TEV cleavage) using a 14% polyacrylamide gel, which was stained with coomassi. Precision Plus Protein™ Unstained Protein Standard s (Bio-Rad Laboratories, Inc. ) was used […]
All experiments were performed as duplicates using MicroAmp fast 96 -well plates. Each plate contained 80 different compound wells and 16 DMSO control wells. First 0.8 µl of a 25 mM Preswick Library Fragment dilution in DMSO or pure DMSO were placed in each of the well (final concentration 500 µM). Then 39.2 µl of the master mi x (containing protein, Triton x -100, SYPRO® Orange Protein Gel Stain and buffer that corresponds to the tested protein) were added.
Table S4: Final concentrations in DSF experiments: […]
The measurements were performed using a iCycler iQ™ Single -Color Real Time PCR device with a heat rate of 1 °C per min, an excitation wavelength of 490 nm and an emission wavelength of 570 nm. The first derivation calculated by MyiQ Op tical Software 1.0 was analyzed using Microsoft Office Excel 2013 by comparing the maxima. A shift of 1 °C (in case of 5 -LOX 0.9°C) or more compared to the DMSO control were assumed as potentially binding of the fragment.
(1 picture or pasted object on this page, not shown here)

[2] = molecular target: T2, 5‐lipoxygenase (5‐LOX) (Homo sapiens, UniProt P09917); test: 5-LOX activity assay (HPLC detection of product formation); assay type: biochemical; settings: for 5‐LOX LE: ligand efficiency calculated from IC50; for IC50: mean±standard deviation of three independent experiments
T2 construct: made in house; host or cells: E. coli BL21 (DE3)
T2 sequence (P09917 1-674): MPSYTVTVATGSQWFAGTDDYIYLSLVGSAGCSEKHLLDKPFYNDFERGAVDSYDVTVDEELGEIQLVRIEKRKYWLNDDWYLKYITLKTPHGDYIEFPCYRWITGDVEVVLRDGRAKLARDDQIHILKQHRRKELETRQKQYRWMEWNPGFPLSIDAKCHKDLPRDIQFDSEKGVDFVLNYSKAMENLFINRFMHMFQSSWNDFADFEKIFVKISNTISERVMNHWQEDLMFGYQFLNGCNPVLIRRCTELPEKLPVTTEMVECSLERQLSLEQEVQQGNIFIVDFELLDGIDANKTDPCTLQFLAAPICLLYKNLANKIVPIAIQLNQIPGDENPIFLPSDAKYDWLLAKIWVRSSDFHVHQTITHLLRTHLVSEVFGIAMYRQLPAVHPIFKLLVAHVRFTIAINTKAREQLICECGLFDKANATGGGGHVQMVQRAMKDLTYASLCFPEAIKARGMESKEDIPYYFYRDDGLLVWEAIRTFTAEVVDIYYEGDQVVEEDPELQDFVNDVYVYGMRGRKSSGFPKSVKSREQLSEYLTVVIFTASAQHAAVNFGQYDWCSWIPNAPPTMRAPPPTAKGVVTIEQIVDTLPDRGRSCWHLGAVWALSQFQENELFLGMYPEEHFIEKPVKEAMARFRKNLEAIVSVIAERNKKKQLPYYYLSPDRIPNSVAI
Procedure: For hit validation, we employed secondary assays with orthogonal readouts to confirm fragment activities. Biochemical activity assays were chosen for the enzymes sEH, LTA4H, and 5‐LOX. […] RXRα and FXR modulation was assessed in cell‐based hybrid reporter gene assays. All ten compounds were tested at a single concentration of 500 μM in the sEH and LTA4H activity assays and with a concentration of 100 μM on 5‐LOX, RXRα, and FXR. Fragments showing an inhibition greater than 50 % (sEH‐H and LTA4H) or greater than 70 % (5‐LOX) as well as the hits determined in the DSF experiments were further characterized in full concentration‐response curves between 0.1 and 1000 μM. […] As alternative cell‐free assay we employed isothermal titration calorimetry (ITC) to determine binding affinity of the fragments towards the LBDs of both nuclear receptors. ITC was performed with a protein concentration of 50 μM and compound concentrations of 250 μM.
The 10 fragments showing dual activity in the DSF experiments were validated by functional assay screening with a fixed concentration of 500 µM in case of sEH-H and LTA4H, 100 µM in case of 5-LOX and 30 µM, 10 µM and 5 µM in case of FXR and […]
% (5-LOX) as well as the hits determined in the DSF experiments were further measured with concentrations between 1000 µM and 0.1 µM (sEH-H and LTA4H) and between 300 µM and 1 µM (5-LOX). The sEH and LTA4H activity assays were performed as triplicate and repeated 3 times. The 5-LOX activity assay was performed with one point per concentration and repeated 3 times Raw data was first analyzed in Microsoft Office Excel (2013), before IC50 curves were plotted and further analyzed using GraphPad Prism 7 and GraphPad Prism 8 for the shown graphs .
The eight approved drugs were measured in the orthogonal assay systems analogous to the fragments. […]
For the 5-LOX they […]
were measured as single point measurement in three different experiments with concentrations between 300 µM and 1 µM. For […]
Raw data was processed according to the fragments. […]

SMILES	DSF/ΔT m RXRα [1]	5‐LOX LE [2]	IC50 [2]
c1ccc(N2CCNCC2)nc1 [Compound 1]	1.1±0.0 °C	–	–
Cc1cc(=O)n(-c2ccc(C)c(C)c2)[nH]1 [Compound 2]	−9.5±24.0 °C	0.42 kcal/mol	21.2 ± 7.3 µM
CCCCOc1cc(C(=O)OC)ccc1N [Compound 3]	−2.9±0.0 °C	–	–
Oc1ccc(Cc2ccccc2)cc1 [Compound 4]	−2.4±0.7 °C	–	–
Oc1ccc2cc[nH]c2c1 [Compound 5]	0.8±0.7 °C	0.64 kcal/mol	19.9 ± 2.4 µM
Cc1ccccc1C(=O)Nc1ccccc1 [Compound 6]	−1.0±0.7 °C	–	–
CCN(Cc1ccccc1)c1ccccc1 [Compound 7]	−0.4±0.7 °C	–	118 ± 45.1 µM
Clc1ccc2c(c1)Nc1ccccc1CC2 [Compound 8]	–	0.44 kcal/mol	6.5 ± 2.2 µM
Oc1ccc(-c2ccc(F)cc2F)cc1 [Compound 9]	2.3±0.0 °C	0.38 kcal/mol	64.6 ± 26.4 µM
Fc1ccc(-c2c[nH]c3ccccc23)cc1 [Compound 10]	1.9±0.0 °C	0.36 kcal/mol	54.3 ± 19.7 µM

From publication PMC8049054, “Systematic Assessment of Fragment Identification for Multitarget Drug Design” (Chemmedchem, 2021)
